# Measurements from patent US9238684B2, “SPANX-B polypeptides and their use” (The United States of America, as represented by the …, priority 2009, dated 2016).
# Columns and labels:
# [1] = test system: SPANX-B-specific CD4^+ T cell lines; assay: IFNγ secretion (ELISA) by CD4+ T cell lines stimulated with antigen-pulsed autologous DCs; assay type: cell-based, human; conditions: for IFNγ secretion by CD4+ T cell lines on stimulation with pulsed DCs: CD4+ T cell lines generated with SPANX-B protein-treated autologous DCs, FIGS. 3A-C; for IFNγ secretion by SPANX-B-specific CD4+ T cell lines, fine mapping of the epitope: autologous DCs pulsed with peptide, lines generated to SPANX-B protein, Pep-1 or Pep-G1, FIG. 3D; for IFNγ secretion by SPANX-B-specific CD4+ T cell line: irradiated mature DCs pulsed with 1 μg/ml peptide, FIG. 3A; for generation of SPANX-B-specific CD4+ T cell lines using the peptide: lines recognized DCs incubated with SPANX-B protein dose-dependently, FIGS. 3C, 3D
# Procedure: T cell stimulation: To generate CD4^+ T cell lines, CD4^+ T cells (2×10^6) were stimulated with autologous DC pulsed with either SPANX-B protein (2 μg/mL), or with SPANX-B peptides (10 μg/mL) in the presence of IL-2 (20 U/mL) for seven days. T cells were re-stimulated once every week two times. To generate CD8^+ CTL lines, 2×10^6 CD8^+ T cells were stimulated with autologous DC pulsed with either SPANX-B protein (2 μg/mL) and SPANX-B peptides (10 μg/mL) in the presence of IL-2 (20 U/mL) and IL-15 (10 ng/mL) for seven days. T cells were weekly restimulated with peptide-loaded DCs for several times. To test antigen-specific activity of CD4^+ T cell lines, all experiments were performed in triplicates in 96-well plates with 1×10^5 CD4^+ T cells/well. […] T cell activity was judged by IFNγ secretion in culture supernatants by ELISA after 48 hours incubation (see below and Schiavo et al., Blood 107(12):4597-605, 2006). For most experiments, unless specified, 1:5 Target:Effector ratio was used.
# Detection of IFNγ by ELISA: ELISA was performed as described elsewhere (Schiavo et al., Blood 107(12):4597-605, 2006). Briefly, 96-well flat-bottom plates were coated with 2 μg/mL of anti-human IFNγ antibody (BD pharmingen, San Jose, Calif.) to capture secreted IFNγ. The captured IFNγ was detected with 0.5 μg/mL biotin-conjugated mouse anti-human IFNγ antibody and streptavidin-HRP (BD pharmingen, San Jose, Calif.). The assay was visualized with TMB peroxidase solution B (KPL, Gaithersburg, Md.) and read at OD450.
# [2] = test system: murine anti-SPANX-B antibody; assay: ELISA on peptide-coated plates with murine anti-SPANX-B antibody; assay type: binding; conditions: Ab from mice DNA immunized with SPANX-B-expressing plasmid; FIG. 1B
# Procedure: FIGS. 1A-1F are digital images, a graph and a schematic diagram illustrating the specificity of antibody and expression of SPANX-B in human immortalized tumor cell lines. FIG. 1A is a digital image showing ANEA-I0117 antibody recognized SPANX-B expressed in mouse erythroleukemia RL5 cells. Western blotting results are shown with ANEA-I0117 anti-SPANX-B antibody on lysates of RL5 cells (2 μl, 5 μl and 10 μl, respectively) transiently transduced with plasmid expressing SPANX-B (SPANX-B). Control lysates were made from untransduced parental RL5 cells (Control). FIG. 1B is a graph showing murine anti-SPANX-B antibody, which was generated from mice DNA immunized with plasmid expressing SPANX-B, recognized unique SPANX-B-specific insert of SPANX-B (encoded in Pep-G1 and Pep-2 peptides), ELISA assay on plates coated with various peptides that are depicted in FIG. 1C. […] FIG. 1D is a digital image showing the expression of SPANX-B protein evaluated by Western blotting with ANEA-I0117 Ab (1:5000) in lysates of cell lines, such as HEK293 (HEK), Jurkat, CRL 7002, UACC1273, 938 Mel, CCRF-CEM (CEM), and normal human donor PBMC (upper panel). The blot was stripped and hybridized with anti-actin antibody (lower panel). FIGS. 1E and 1F are digital images obtained from an immunohistochemistry and immunofluorescent assay, respectively, of melanoma (UACC1273) and ovarian carcinoma (2008 and OVCAR3) cell lines. The cells were stained with ANEA-I0117 Ab (right and bottom panels in FIG. 1E and FIG. 1F, respectively); and control IgG (left and upper panels in FIG. 1E and FIG. 1F, respectively).
# SPANX-B can be often found in the list of highly expressed genes in microarray study of human tumors, including hematological malignancies and breast cancer (see, for example, Minn et al., Nature 436(7050):518-24, 2005). To confirm this, expression was tested using two antibodies, a rabbit 3ANEA Ab and mouse SPANX-B Ab. […] The second SPANX-B Ab was produced from mice DNA immunized with SPANX-B-expressing plasmid. […] In contrast, it reacted with a second peptide Pep-2 that only represented unique for SPANX-B insert of Pep-G1 (FIGS. 1B and C).
# [3] = test system: HLA-DR; assay: HLA blocking of Pep-9-induced CD4+ T cell activation; assay type: cell-based, human
# Procedure: The MHC […] inhibition assays: HLA specific mAbs or control isotype matched IgG were preincubated with peptide-pulsed DCs at concentration of 10 μg/mL for one hour at 4° C. Cells were washed with PBS, irradiated at 4500 rad and mixed with T cells at indicated ratios. To block HLA class I expression, tumor cells lines were pretreated with 10 μg/mL of anti-HLA-A,B,C antibodies (BD Pharmingen, San Jose, Calif.) for one hour at 4° C. Cells were washed with PBS and labeled with ^51Cr as indicated above. IFNγ production was determined by ELISA after 48 hour incubation as described (Schiavo et al., Blood 107(12):4597-605, 2006).
# Next, to characterize HLA specificity, the CD4^+ T cell lines were stimulated with autologous DCs pulsed with Pep-9 in the presence of antibody that blocked HLA-DR, or HLA-DQ, or HLA-DP molecules. The stimulation of the SPANX-B-specific CD4^+ T cells was not affected by the presence of control antibody or antibodies that block HLA-DQ, or HLA-DP, or anti-MHC class I (FIGS. 4 A-C).
# [4] = test system: SPANX-B; assay: DNA immunization of mice, serum ELISA on peptide-coated plates; assay type: in vivo; conditions: plates coated with peptide 5 μg/ml; FIG. 7
# Procedure: Mice were intradermally immunized twice with 25 μg plasmid DNA constructs including MIP-3α-SPANX-B. Sera were tested for SPANX-B antibodies by ELISA assay in 96-well plates coated with the indicated peptides (5 μg/ml). […] The other was near the N-terminus, encoded by Pep-G1 (SEQ ID NO: 14) and Pep-2 (SEQ ID NO: 2) and Pep-3 (SEQ ID NO: 3).
# [5] = test system: HEK293 cells; assay: CTL 51Cr release assay on HEK293 cells pulsed with Pep-2; assay type: cell-based, human; conditions: FIGS. 6A-C; for lysis of HLA-A2-expressing HEK293 cells pulsed with Pep-2 by CD8+ T cell lines generated to the antigen: HEK-A2, pulsed with 1 μg/ml Pep-2; for lysis of HLA-A2-negative parental HEK293 cells by CD8+ T cell lines generated to the antigen: HEK
# Procedure: (§1) CTL assay and HLA blocking experiments: Tumor cell lines (target cells, 2×10^6) were incubated in 200 μL of fetal bovine serum (FBS) with 200 μCi of Na2^51CrO4 (PerkinElmer, Billerica, Mass.) for 2 hours at 37° C. Cells were washed with RPMI three times and resuspended in cRPMI with 10% FBS at 1×10^5 cells/mL. CTL assay was performed in triplicate in 96-well round bottom plates with 1×10^4/well ^51Cr-labeled target cells. The target cells were co-cultured at indicated ratios with effector cells (peptide-specific CD8^+ T cells) for 6 hours. The specific ^51Cr-release is calculated using formula: ((test sample release−spontaneous release)/(maximum release−spontaneous release))×100). Maximum release is for the target cells alone lysed with 2% Triton X-100.
# [6] = test system: SPANX-B-specific CD8^+ T cell lines; assay: IFNγ secretion (ELISA) by CD8+ T cell lines stimulated with antigen-pulsed autologous DCs; assay type: cell-based, human; conditions: for IFNγ secretion by SPANX-B-specific CD8+ T cells on stimulation with pulsed DCs: irradiated autologous DCs, lines generated with SPANX-B protein, FIG. 5A
# [7] = test system: UACC1273 melanoma cells; assay: CTL 6-hour 51Cr release assay on UACC1273; assay type: cell-based, human; conditions: SPANX-B-expressing, HLA-A2-positive target; FIGS. 6A-C
# Procedure: as §1
# [8] = test system: primary human melanoma cells; assay: CTL 51Cr release assay on primary human melanoma cells; assay type: cell-based; conditions: for lysis of HLA-A2-expressing primary melanoma tumors by CD8+ lines generated to the antigen: Tc526, Tc624 and Tc2492; for lysis of HLA-A2-negative primary melanoma tumors by CD8+ lines generated to the antigen: Tc2547 and Tc938, FIG. 6E
# Procedure: as §1
molecule,measurement,setting,value
ANEANEANKTMPETPTGDSDP (Synthetic peptide Pep-G2),IFNγ secretion by CD4+ T cell lines on stimulation with pulsed DCs,[1],failed to respond
same,recognition of peptide by mouse SPANX-B Ab (ELISA),[2],but not other region-specific peptides
RSVPCESNEANE (Synthetic peptide Pep-9),"IFNγ secretion by SPANX-B-specific CD4+ T cell lines, fine mapping of the epitope",[1],able to activate the SPANX-B-specific CD4^+ T cell lines
same,HLA restriction of recognition by human CD4+ T cells,[3],HLA-DR-restricted fashion
RSVPCESNEVNETMPETPTGDSDP (Synthetic peptide Pep-5),IFNγ secretion by CD4+ T cell lines on stimulation with pulsed DCs,[1],activated the CD4^+ T cell lines to secrete IFNγ
same,IFNγ secretion by SPANX-B-specific CD4+ T cell line,[1],can be also activated to secrete IFNγ
same,generation of SPANX-B-specific CD4+ T cell lines using the peptide,[1],readily generated
same,recognition of peptide by mouse SPANX-B Ab (ELISA),[2],failed to recognize
"ALWFRNHFVFGGGTK (Synthetic peptide MOPC (9)) [control murine class II peptide, reference compound]",IFNγ secretion by CD4+ T cell lines on stimulation with pulsed DCs,[1],failed to respond
KRSVPCESNEANEANEANKTM (Synthetic peptide Pep-G1),IFNγ secretion by CD4+ T cell lines on stimulation with pulsed DCs,[1],activated the CD4^+ T cell lines to secrete IFNγ
same,IFNγ secretion by SPANX-B-specific CD4+ T cell line,[1],can be also activated to secrete IFNγ
same,generation of SPANX-B-specific CD4+ T cell lines using the peptide,[1],readily generated
same,recognition of peptide by mouse SPANX-B Ab (ELISA),[2],preferentially recognized
same,B cell epitope recognized by sera of immunized mice (ELISA),[4],Immunodominant B cell epitopes
KRTSPEELVNDHARENRINPDQME (Synthetic peptide Pep-7),B cell epitope recognized by sera of immunized mice (ELISA),[4],Immunodominant B cell epitopes
LVVRYRRNV (Synthetic peptide Pep-4),lysis of HLA-A2-expressing HEK293 cells pulsed with Pep-2 by CD8+ T cell lines generated to the antigen,[5],lysed HLA-A2-expressing HEK293 cells that were pulsed with Pep-2
same,lysis of HLA-A2-negative parental HEK293 cells by CD8+ T cell lines generated to the antigen,[5],did not kill
same,recognition of SPANX-B protein-pretreated DCs by CD8+ T cells generated with peptide-pulsed DCs,[6],also recognized SPANX-B protein-pretreated DCs
same,IFNγ secretion by SPANX-B-specific CD8+ T cells on stimulation with pulsed DCs,[6],secreted IFNγ
same,lysis of UACC1273 melanoma cells by CD8+ T cell lines generated to the antigen,[7],killed UACC1273 melanoma cells
same,lysis of HLA-A2-expressing primary melanoma tumors by CD8+ lines generated to the antigen,[8],recognized and lysed
same,lysis of HLA-A2-negative primary melanoma tumors by CD8+ lines generated to the antigen,[8],not affected
"RSAPCASAEVNE (Synthetic peptide Pep-9 Mod) [Pep-9-Mod, reference compound]","IFNγ secretion by SPANX-B-specific CD4+ T cell lines, fine mapping of the epitope",[1],did not respond
QPAPKKMKTSESSTILVVRYRRNV (Synthetic peptide Pep-6),IFNγ secretion by CD4+ T cell lines on stimulation with pulsed DCs,[1],failed to respond
same,recognition of peptide by mouse SPANX-B Ab (ELISA),[2],but not other region-specific peptides
GQQSSVRRL (Synthetic peptide Pep-3),recognition of peptide by mouse SPANX-B Ab (ELISA),[2],but not other region-specific peptides
same,B cell epitope recognized by sera of immunized mice (ELISA),[4],Immunodominant B cell epitopes
ENRINPDQMEEEEFIEITTERPKK (Synthetic peptide Pep-8),B cell epitope recognized by sera of immunized mice (ELISA),[4],Immunodominant B cell epitopes
"SPANX-B protein: Recombinant SPANX-B protein fused with maltose binding protein (MBP), produced and purified from E. coli (protein) MGQQSSVRRLKRSVPCESNEANEANEANKTMPETPTGDSDPQPAPKKMKTSESSTILVVRYRRNVKRTSPEELLNDHARENRINPDQMEEEEFIEITTERPKK",IFNγ secretion by CD4+ T cell lines on stimulation with pulsed DCs,[1],specifically recognized SPANX-B-treated DCs
same,lysis of HLA-A2-expressing HEK293 cells pulsed with Pep-2 by CD8+ T cell lines generated to the antigen,[5],lysed HLA-A2-expressing HEK293 cells that were pulsed with Pep-2
same,lysis of HLA-A2-negative parental HEK293 cells by CD8+ T cell lines generated to the antigen,[5],did not kill
same,"SPANX-B-specific CD8+ T cell lines generated, donors","[6]; HLA-A2-positive peripheral blood CD8+ T cells, DCs incubated with SPANX-B protein",3/3
same,IFNγ secretion by SPANX-B-specific CD8+ T cells on stimulation with pulsed DCs,[6],secreted IFNγ
same,lysis of UACC1273 melanoma cells by CD8+ T cell lines generated to the antigen,[7],killed UACC1273 melanoma cells
same,lysis of HLA-A2-expressing primary melanoma tumors by CD8+ lines generated to the antigen,[8],recognized and lysed
same,lysis of HLA-A2-negative primary melanoma tumors by CD8+ lines generated to the antigen,[8],not affected
